#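 Interpolation was linear, between the two tested concentrations surrounding the appropriate level; five concentrations were tested over 48 hours in 96-well plates. Here, GI50 denotes the concentration required for 50% inhibition of growth.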 Activity calls are given as the source filed them. No stated cut-off is given here; in the data, active = GI50 up to about 1.1 µM and inactive = higher.
# Columns and labels:
# Test in all cases: growth of human tumour cells (NCI), 48 h
# [1] = system: CAKI-1
# [2] = system: COLO 205
# [3] = system: HCC 2998
# [4] = system: HCT-15
# [5] = system: HL-60
# [6] = system: HOP-62
# [7] = system: HOP-92
# [8] = system: MOLT-4
# [9] = system: Malme-3M
# [10] = system: NCI-H23
# [11] = system: OVCAR-3
# [12] = system: OVCAR-5
# [13] = system: RPMI-8226
# [14] = system: SF-539
# [15] = system: SNB-19
# [16] = system: U-251
# [17] = system: UACC-257
# [18] = system: UACC-62
# [19] = system: 786-0
Compound,GI50 [1],GI50 [2],GI50 [3],GI50 [4],GI50 [5],GI50 [6],GI50 [7],GI50 [8],GI50 [9],GI50 [10],GI50 [11],GI50 [12],GI50 [13],GI50 [14],GI50 [15],GI50 [16],GI50 [17],GI50 [18],GI50 [19]
CC12CCC3C(CCC4(O)C=CCCC34C=O)C1(O)CC(O)C2c1ccc(=O)oc1 (stereo not given),0.0578 µM (active),0.113 µM (active),0.117 µM (active),0.0658 µM,0.0665 µM (active),0.0556 µM (active),0.105 µM (active),< 0.05 µM (active),0.0521 µM (active),0.0512 µM (active),0.0625 µM (active),0.191 µM (active),0.0697 µM (active),< 0.05 µM (active),0.127 µM (active),0.08 µM (active),0.104 µM (active),0.076 µM (active),
CC(C)=CCc1c(O)ccc2c1OC1c3ccc(O)c(CC=C(C)C)c3OCC21 (stereo not given),9.02 µM (inactive),17.3 µM (inactive),13.2 µM (inactive),3.96 µM,4.32 µM (inactive),9.84 µM (inactive),> 100 µM (inactive),3.14 µM (inactive),17 µM (inactive),> 38.8 µM (inactive),13.6 µM (inactive),13.9 µM (inactive),3.28 µM (inactive),10.5 µM (inactive),13.6 µM (inactive),7.67 µM (inactive),13.8 µM (inactive),5.64 µM (inactive),
O=[N+]([O-])c1ccc(Nc2cccc3c4cc[nH]c(-c5ccccc5)c-4nc23)c([N+](=O)[O-])c1,,> 100 µM (inactive),> 100 µM (inactive),> 100 µM,> 100 µM (inactive),> 100 µM (inactive),> 100 µM (inactive),5.82 µM (inactive),> 100 µM (inactive),> 100 µM (inactive),> 100 µM (inactive),> 100 µM (inactive),> 100 µM (inactive),> 100 µM (inactive),> 100 µM (inactive),> 100 µM (inactive),> 100 µM (inactive),93.5 µM (inactive),
CC1CCCP(=O)(c2ccccc2)CC1 (stereo not given),> 100 µM (inactive),> 100 µM (inactive),> 100 µM (inactive),> 100 µM,,> 100 µM (inactive),,> 100 µM (inactive),> 100 µM (inactive),> 100 µM (inactive),> 100 µM (inactive),> 100 µM (inactive),> 100 µM (inactive),> 100 µM (inactive),> 100 µM (inactive),> 100 µM (inactive),> 100 µM (inactive),> 100 µM (inactive),> 100 µM (inactive)
Cc1c(C2=NN=C(/N=N/c3c(O)cccc3O)/C2=C/c2ccccc2)c(=O)n(-c2ccccc2)n1C,> 100 µM (inactive),> 100 µM (inactive),> 100 µM (inactive),> 100 µM,> 100 µM (inactive),> 100 µM (inactive),> 100 µM (inactive),> 100 µM (inactive),> 100 µM (inactive),> 100 µM (inactive),> 100 µM (inactive),> 100 µM (inactive),> 100 µM (inactive),> 100 µM (inactive),> 100 µM (inactive),> 100 µM (inactive),> 100 µM (inactive),> 100 µM (inactive),
COC(=N)c1ncn(Cc2ccccc2)c1N,> 100 µM (inactive),> 100 µM (inactive),> 100 µM (inactive),> 100 µM,,> 100 µM (inactive),> 100 µM (inactive),,> 100 µM (inactive),> 100 µM (inactive),> 100 µM (inactive),> 100 µM (inactive),> 100 µM (inactive),> 100 µM (inactive),> 100 µM (inactive),> 100 µM (inactive),> 100 µM (inactive),> 100 µM (inactive),> 100 µM (inactive)

# Reference: ChEMBL document CHEMBL1201862, “PubChem BioAssay data set” (2004)
